Test results from patent US10696615B2, “Prenylated hydroxystilbenes” (The University of Sydney, priority 2011, dated 2020).

Assays:
Assay type in all cases: cell-based, human
[1] = test system: MDA-MB-435; assay: NCI in vitro cancer screen, Melanoma; settings: MDA-MB-435; for GI50 / CC50: Homo sapiens; for CC50: read-out: LC50 (the source's name)
[2] = test system: SR; assay: NCI in vitro cancer screen, Leukemia; settings: for GI50 / CC50: Homo sapiens; for CC50: read-out: LC50 (the source's name)
[3] = test system: HS 578T; assay: NCI in vitro cancer screen, Breast Cancer; settings: for GI50 / CC50: Homo sapiens; for CC50: read-out: LC50 (the source's name)
[4] = test system: MALME-3M; assay: NCI in vitro cancer screen, Melanoma; settings: for GI50 / CC50: Homo sapiens, Malme-3M; for CC50: read-out: LC50 (the source's name); for TGI: MALME-3M
[5] = test system: OVCAR-3; assay: NCI in vitro cancer screen, Ovarian Cancer; settings: OVCAR-3; for GI50 / CC50: Homo sapiens; for CC50: read-out: LC50 (the source's name)
[6] = test system: NCI-H23; assay: NCI in vitro cancer screen, Non-Small Cell Lung Cancer; settings: NCI-H23; for GI50 / LC50: Homo sapiens
[7] = test system: SK-OV-3; assay: NCI in vitro cancer screen, Ovarian Cancer; settings: SK-OV-3; for GI50 / CC50: Homo sapiens; for CC50: read-out: LC50 (the source's name)
[8] = test system: 786-0; assay: NCI in vitro cancer screen, Renal Cancer; settings: 786-0; for GI50 / LC50 (50% net cell kill): Homo sapiens
[9] = test system: SNB-19; assay: NCI in vitro cancer screen, CNS Cancer; settings: SNB-19; for GI50 / CC50: Homo sapiens; for CC50: read-out: LC50 (the source's name)
[10] = test system: HCC-2998; assay: NCI in vitro cancer screen, Colon Cancer; settings: HCC-2998; for GI50 / CC50: Homo sapiens; for CC50: read-out: LC50 (the source's name)
[11] = test system: HCT-116; assay: NCI in vitro cancer screen, Colon Cancer; settings: HCT-116; for GI50 / LC50 (concentration killing 50% of cells): Homo sapiens
[12] = test system: CCRF-CEM; assay: NCI in vitro cancer screen, Leukemia; settings: for GI50 / CC50: Homo sapiens; for CC50: read-out: LC50 (the source's name)
[13] = test system: TK-10; assay: NCI in vitro cancer screen, Renal Cancer; settings: TK-10; for GI50 / LC50: Homo sapiens
[14] = test system: HOP-62; assay: NCI in vitro cancer screen, Non-Small Cell Lung Cancer; settings: HOP-62; for GI50 / CC50: Homo sapiens; for CC50: read-out: LC50 (the source's name)
[15] = test system: NCI-H226; assay: as above; settings: NCI-H226; for GI50 / LC50 (50% lethal concentration): Homo sapiens
[16] = test system: DU-145; assay: NCI in vitro cancer screen, Prostate Cancer; settings: DU-145; for GI50 / CC50: Homo sapiens; for CC50: read-out: LC50 (the source's name)
[17] = test system: ACHN; assay: NCI in vitro cancer screen, Renal Cancer; settings: for GI50 / CC50: Homo sapiens; for CC50: read-out: LC50 (the source's name)
[18] = test system: U251; assay: NCI in vitro cancer screen, CNS Cancer; settings: U251; for GI50 / CC50: Homo sapiens, U-251; for CC50: read-out: LC50 (the source's name)
[19] = test system: NCI-H460; assay: NCI in vitro cancer screen, Non-Small Cell Lung Cancer; settings: NCI-H460; for GI50 / CC50: Homo sapiens; for CC50: read-out: LC50 (the source's name)
[20] = test system: SF-295; assay: NCI in vitro cancer screen, CNS Cancer; settings: SF-295; for GI50 / CC50: Homo sapiens; for CC50: read-out: LC50 (the source's name)
[21] = test system: SW-620; assay: NCI in vitro cancer screen, Colon Cancer; settings: SW-620; for GI50 / CC50: Homo sapiens; for CC50: read-out: LC50 (the source's name)
[22] = test system: IGROV1; assay: NCI in vitro cancer screen, Ovarian Cancer; settings: IGROV1; for GI50 / CC50: Homo sapiens, IGROV-1; for CC50: read-out: LC50 (the source's name)
[23] = test system: K-562; assay: NCI in vitro cancer screen, Leukemia; settings: K-562; for GI50 / CC50: Homo sapiens, K562; for CC50: read-out: LC50 (the source's name)
[24] = test system: SK-MEL-5; assay: NCI in vitro cancer screen, Melanoma; settings: SK-MEL-5; for GI50 / CC50: Homo sapiens; for CC50: read-out: LC50 (the source's name)
[25] = test system: MDA-MB-468; assay: NCI in vitro cancer screen, Breast Cancer; settings: MDA-MB-468; for GI50 / CC50: Homo sapiens; for CC50: read-out: LC50 (the source's name)
[26] = test system: UACC-62; assay: NCI in vitro cancer screen, Melanoma; settings: UACC-62; for GI50 / CC50: Homo sapiens; for CC50: read-out: LC50 (the source's name)
[27] = test system: CAKI-1; assay: NCI in vitro cancer screen, Renal Cancer; settings: CAKI-1; for GI50 / CC50: Homo sapiens; for CC50: read-out: LC50 (the source's name)
[28] = test system: ADR-RES (NCI/ADR-RES); assay: NCI in vitro cancer screen, Ovarian Cancer; settings: for TGI: ADR-RES; for GI50 / CC50: Homo sapiens, NCI/ADR-RES; for CC50: read-out: LC50 (the source's name)

With `CC(C)=CCOc1cc(O)cc(/C=C/c2ccc(O)c(O)c2)c1` [USYDS4, (E)-3-(3-methyl-2-butenyloxy)-3′,4′,5-trihydroxystilbene] the GI50 [1] was 0.36 µM, the CC50 [1] was greater than 100 µM and the TGI [1] was 21.6 µM. The TGI [2] was greater than 100 µM, the GI50 [2] was 0.95 µM and the CC50 [2] was greater than 100 µM. It also gave a TGI [3] of 7.11 µM, a GI50 [3] of 1 µM and a CC50 [3] greater than 100 µM. The GI50 [4] was 7.25 µM, the CC50 [4] was greater than 100 µM and the TGI [4] was 30.6 µM. The GI50 [5] was 3.98 µM, the CC50 [5] was 44.9 µM and the TGI [5] was 15.0 µM. It also gave a GI50 [6] of 3.42 µM, an LC50 [6] of 81.9 µM and a TGI [6] of 20.8 µM. It also gave a GI50 [7] of 8.91 µM, a CC50 [7] greater than 100 µM and a TGI [7] of 57.0 µM. It also gave a TGI [8] of 20.5 µM, a GI50 [8] of 4.41 µM and an LC50 (50% net cell kill) [8] greater than 100 µM. It also gave a GI50 [9] of 10.5 µM, a CC50 [9] of 63.8 µM and a TGI [9] of 25.8 µM. It also gave a TGI [10] of 19.0 µM, a GI50 [10] of 5.16 µM and a CC50 [10] of 53.4 µM. The TGI [11] was 16.0 µM, the GI50 [11] was 4.55 µM and the LC50 (concentration killing 50% of cells) [11] was 40.6 µM. It also gave a TGI [12] greater than 100 µM, a GI50 [12] of 3.5 µM and a CC50 [12] greater than 100 µM. For the same molecule, the GI50 [13] was 3.87 µM, the LC50 [13] was greater than 100 µM and the TGI [13] was 9.66 µM. The TGI [14] was 26.3 µM, the GI50 [14] was 6.49 µM and the CC50 [14] was 83.4 µM. It also gave a GI50 [15] of 5.14 µM, an LC50 (50% lethal concentration) [15] of 78 µM and a TGI [15] of 23.1 µM. For the same molecule, the TGI [16] was 44.6 µM, the GI50 [16] was 6.37 µM and the CC50 [16] was greater than 100 µM. It also gave a TGI [17] greater than 100 µM, a GI50 [17] of 4.57 µM and a CC50 [17] greater than 100 µM. The GI50 [18] was 3.67 µM, the CC50 [18] was 45.5 µM and the TGI [18] was 15.6 µM. For the same molecule, the GI50 [19] was 3.65 µM, the CC50 [19] was greater than 100 µM and the TGI [19] was 20.3 µM. For the same molecule, the GI50 [20] was 7.29 µM, the CC50 [20] was 70.9 µM and the TGI [20] was 24.3 µM. It also gave a GI50 [21] of 2.97 µM, a CC50 [21] of 46.5 µM and a TGI [21] of 16.6 µM. The GI50 [22] was 3.74 µM, the CC50 [22] was greater than 100 µM and the TGI [22] was 44.8 µM. The GI50 [23] was 2.35 µM, the CC50 [23] was greater than 100 µM and the TGI [23] was greater than 100 µM. For the same molecule, the GI50 [24] was 1.42 µM, the CC50 [24] was 30 µM and the TGI [24] was 8.35 µM. It also gave a GI50 [25] of 2.53 µM, a CC50 [25] of 55.1 µM and a TGI [25] of 9.51 µM. The GI50 [26] was 4.53 µM, the CC50 [26] was 44.4 µM and the TGI [26] was 16.8 µM. The TGI [27] was greater than 100 µM, the GI50 [27] was 5.25 µM and the CC50 [27] was greater than 100 µM. The TGI [28] was 48.3 µM, the GI50 [28] was 1.11 µM and the CC50 [28] was greater than 100 µM.

`COc1cc(/C=C/c2cc(O)c(CC=C(C)C)c(O)c2)ccc1O` [USYDS13, (E)-4-(3-methyl-2-buten-1-yl)-3,4′,5-trihydroxy-3′-methoxystilbene] was tested, and the GI50 [1] was 3.08 µM, the CC50 [1] was greater than 100 µM and the TGI [1] was 15.9 µM. The TGI [2] was greater than 100 µM, the GI50 [2] was 2.8 µM and the CC50 [2] was greater than 100 µM. It also gave a TGI [3] of 15.0 µM, a GI50 [3] of 2.4 µM and a CC50 [3] greater than 100 µM. It also gave a GI50 [4] of 5.53 µM, a CC50 [4] greater than 100 µM and a TGI [4] of 32.1 µM. The GI50 [5] was 7.98 µM, the CC50 [5] was greater than 100 µM and the TGI [5] was 39.8 µM. It also gave a GI50 [6] of 5.66 µM, an LC50 [6] greater than 100 µM and a TGI [6] of 28.0 µM. The GI50 [7] was 7.96 µM, the CC50 [7] was greater than 100 µM and the TGI [7] was 36.2 µM. It also gave a TGI [8] of 24.5 µM, a GI50 [8] of 5.24 µM and an LC50 (50% net cell kill) [8] greater than 100 µM. It also gave a GI50 [9] of 8.02 µM, a CC50 [9] of 64.5 µM and a TGI [9] of 24.2 µM. The TGI [10] was 30.6 µM, the GI50 [10] was 11 µM and the CC50 [10] was 85.3 µM. It also gave a TGI [11] of 15.6 µM, a GI50 [11] of 4.33 µM and an LC50 (concentration killing 50% of cells) [11] of 45.6 µM. It also gave a TGI [12] greater than 100 µM, a GI50 [12] of 6.56 µM and a CC50 [12] greater than 100 µM. It also gave a GI50 [13] of 6.98 µM, an LC50 [13] greater than 100 µM and a TGI [13] of 31.4 µM. For the same molecule, the TGI [14] was 20.4 µM, the GI50 [14] was 5.66 µM and the CC50 [14] was 53.7 µM. For the same molecule, the GI50 [15] was 10.9 µM, the LC50 (50% lethal concentration) [15] was greater than 100 µM and the TGI [15] was 50.1 µM. It also gave a TGI [16] of 31.6 µM, a GI50 [16] of 6.82 µM and a CC50 [16] greater than 100 µM. The TGI [17] was greater than 100 µM, the GI50 [17] was 5.11 µM and the CC50 [17] was greater than 100 µM. For the same molecule, the GI50 [18] was 5.47 µM, the CC50 [18] was 57.6 µM and the TGI [18] was 20.7 µM. It also gave a GI50 [19] of 3.09 µM, a CC50 [19] greater than 100 µM and a TGI [19] of 15.6 µM. For the same molecule, the GI50 [20] was 5.22 µM, the CC50 [20] was 77.5 µM and the TGI [20] was 23.5 µM. The GI50 [21] was 3.98 µM, the CC50 [21] was 42.8 µM and the TGI [21] was 15.9 µM. It also gave a GI50 [22] of 6.7 µM, a CC50 [22] greater than 100 µM and a TGI [22] of 86.2 µM. It also gave a GI50 [23] of 4.08 µM, a CC50 [23] greater than 100 µM and a TGI [23] of 57.5 µM. It also gave a GI50 [24] of 2.5 µM, a CC50 [24] of 29.2 µM and a TGI [24] of 8.54 µM. The GI50 [25] was 1.68 µM, the CC50 [25] was greater than 100 µM and the TGI [25] was 7.63 µM. The GI50 [26] was 5.3 µM, the CC50 [26] was 58.8 µM and the TGI [26] was 19.7 µM. It also gave a TGI [27] greater than 100 µM, a GI50 [27] of 5.9 µM and a CC50 [27] greater than 100 µM. For the same molecule, the TGI [28] was greater than 100 µM, the GI50 [28] was 4.41 µM and the CC50 [28] was greater than 100 µM.
